Patent US20190022110A1, “AQUEOUS BASED CAPSAICINOID FORMULATIONS AND METHODS OF MANUFACTURE AND USE” (VIZURI HEALTH SCIENCES LLC, priority 2012, published 2019)
Values after ≈ are worked out from the molar mass of the structure shown.

Tests used:
[1] = cited from earlier work
arthritic knee joints = test: Clinical study: corticosteroid pretreatment and pain due to intra-articular capsaicin injection; assay type: in vivo, human
Procedure: This study examined the administration of a corticosteroid as an adjunctive agent prior to the administration of capsaicin to attenuate the burning and stinging effect resulting for the intra-articular injection of capsaicin into the knee joint.
Tests were conducted to evaluate the effectiveness of a corticosteroid injection into a site prior to injection of a capsaicin formulation. Subjects with arthritic knee joints were selected and treated as follows: • The knee joint to be treated was cleaned with Betadine or other suitable antiseptic agent. • A […].
Procedures and resulting pain level experienced by the injection of subjects injected with a 0.2 mg dose level of the capsaicin formulation as a function of elapsed time are summarized in Tables IX to XV. […] A description of the 6 knees treated with the capsaicin injections follows.

peripheral nociceptors = conditions: cited from earlier work
physchem = conditions: for solubility: aqueous with cosolvent or surfactant or cyclodextrin
Procedure: The teachings of this application were utilized in solubilizing capsaicin in a high purity PS 80 obtained from Croda Inc.
• 1. 10 grams of PS 80 are added to a 50 ml “Pyrex” glass vial. • 2. 2 grams of Trans-Capsaicin are added to the PS 80 in Step 1. • 3. The mixture from Step 2 is heated to ˜55° C. to dissolve the Trans-Capsaicin and form the Trans-Capsaicin/PS80 concentrate.

[2] = in vivo; cited from earlier work
[3] = knee #1, patient #1, Depo-Medrol, no Lidocaine, 0.2 mg capsaicin
[4] = knee #2, patient #2, Depo-Medrol, Lidocaine, 0.2 mg capsaicin
[5] = knee #3, patient #3, Depo-Medrol, Lidocaine, 0.2 mg capsaicin
[6] = knee #4, patient #4 left, Depo-Medrol, gel pack, Lidocaine, 0.2 mg capsaicin
[7] = knee #5, patient #4 right, no corticosteroid, Lidocaine, 0.2 mg capsaicin
[8] = knee #6, patient #1 right, Depo-Medrol, cold pack, Lidocaine, 0.2 mg capsaicin

What does the source list for `CCOC(=O)c1ccc(N)cc1` [Benzocaine]?
Aqueous Soluble [1]: sparingly; Oil Soluble [1]: soluble

With `COc1cc(CNC(=O)CCCC/C=C/C(C)C)ccc1O` [Capsaicin] as the compound, how does the “pain status of treated knees as of the date of filing” value (arthritic knee joints; all patients, 0.2 mg capsaicin intra-articular) read?
The value was “remain pain free”.

And the duration pain free (arthritic knee joints; in one case)?
The duration pain free was “over 3 weeks”.

And the “duration of extreme pain following capsaicin injection” value (arthritic knee joints; [3])?
Its value is “about 1 hour”.

And the “relief of arthritic pain symptoms” value (arthritic knee joints; [3])?
The value was “significant relief of their arthritic pain symptoms”.

What about the “time of procedure until relief of arthritic pain symptoms” value (arthritic knee joints; [3]) of the same compound?
Its value is roughly 80 min.

And the “relief of arthritic pain symptoms” value (arthritic knee joints; [4])?
Its value is “complete relief of their osteoarthritic pain symptoms”.

And the “time until procedure completed and pain relief” value (arthritic knee joints; [4])?
Its value is “about 30 minutes”.

What about the “relief of arthritic pain symptoms” value (arthritic knee joints; [5]) of the same compound?
Its value is “complete relief for their painful arthritic symptoms”.

And the “time until procedure concluded and pain relief” value (arthritic knee joints; [5])?
Its value is “about 23 minutes”.

And the “relief of arthritic pain symptoms” value (arthritic knee joints; [6])?
Its value is “complete relief of their painful severe osteoarthritis pain”.

And the “time pain level remained at a mild level before complete relief” value (arthritic knee joints; [6])?
The value was “about 13 minutes”.

What about the “relief of arthritic pain symptoms” value (arthritic knee joints; [7]) of the same compound?
The value was “alleviated their painful arthritic symptoms”.

What about the “time until arthritic symptoms alleviated” value (arthritic knee joints; [7]) of the same compound?
Its value is roughly 25 min.

What about the “relief of arthritic pain symptoms” value (arthritic knee joints; [8]) of the same compound?
Its value is “complete relief of their painful arthritic symptoms”.

What about the “time until procedure concluded and pain relief” value (arthritic knee joints; [8]) of the same compound?
Its value is “about 17 minutes”.

What about the “duration of subsequent mild pain” value (peripheral nociceptors; injectable capsaicin formulations, after the intense B&S pain) of the same compound?
The value was 1 to 2 h.

And the “duration of intense burning and stinging (B&S) pain” value (peripheral nociceptors; injectable capsaicin formulations)?
The value was “up to 1 hour”.

What about the “persistence of spontaneous burning pain and hyperalgesia” value (peripheral nociceptors; upon capsaicin injection in clinical trials) of the same compound?
Its value is “up to 60 minutes”.

What about the “Aqueous Soluble” value [1] of the same compound?
Its value is “insoluble”.

And the “Oil Soluble” value [1]?
The value was “soluble”.

What about the “capsaicin concentration achieved in PS 80” value (physchem) of the same compound?
Its value is 200 mg/mL.

What about the “capsaicin solubility with PEG-400 compared to PS80” value (physchem) of the same compound?
Its value is “did not achieve the capsaicin solubility levels”.

What about the “supersaturation of Capsaicin/PS 80 solution” value (physchem) of the same compound?
Its value is “not supersaturated”.

And the “dissolution of capsaicin without pre-formed concentrate” value (physchem; PS 80 and capsaicin added to water, then heated to ~70° C.-90° C.)?
The value was “only a fraction of the capsaicin dissolving”.

And the solubility (physchem; aqueous capsaicin solubility level)?
Its solubility is 20000 µg/mL (≈ 65.5 mM).

What about the solubility (physchem; aqueous capsaicin solubility level, 2 ml capsaicin/PS 80 concentrate added to 98 grams of ~70° C. water, cooled to room temperature) of the same compound?
The solubility was 4000 µg/mL (≈ 13.1 mM).

What about the solubility (physchem; increase of aqueous solubility of capsaicin) of the same compound?
Its solubility is roughly 1000 µg/mL (≈ 3.27 mM).

What does the source list for `CCO` [Ethyl Alcohol]?
Aqueous Soluble [1]: miscible; Oil Soluble [1]: soluble

Which “Aqueous Soluble” value [1] does the source give for `CC1CCC(C(C)C)C(O)C1` (stereo not drawn) [Menthol] here?
The value was “slightly”.

And the “Oil Soluble” value [1]?
Its value is “soluble”.

Which “Aqueous Soluble” value [1] does the source give for `CCCNC(C)C(=O)Nc1ccccc1C` (stereo not drawn) [Prilocaine] here?
Its value is “sparingly”.

What about the “Oil Soluble” value [1] of the same compound?
Its value is “soluble”.

Which systemic absorption [2] does the source give for Polyethylene glycol [PEG] here?
The systemic absorption was “less than 0.5%”.
